Reference: ChEMBL document CHEMBL1201862, “PubChem BioAssay data set” (2004)
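Where inhibition never reached the appropriate level, the endpoint shown equals the highest concentration tested. Otherwise, values were interpolated linearly from a five-concentration, 48-hour dose response in 96-well plates. Abbreviation: GI50, concentration required for 50% inhibition of growth.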 Calls of active or inactive are those of the source. No stated cut-off is given here; in the data, active = GI50 up to about 1.1 µM and inactive = higher.

Legend:
Assay in all cases: growth of human tumour cells (NCI), 48 h
SF-295 = tested on: SF-295
TK-10 = tested on: TK-10
SW-620 = tested on: SW-620
NCI/ADR-RES = tested on: NCI/ADR-RES
K562 = tested on: K562
RXF 393 = tested on: RXF 393
A498 = tested on: A498
M14 = tested on: M14
EKVX = tested on: EKVX
UO-31 = tested on: UO-31
SF-539 = tested on: SF-539
RPMI-8226 = tested on: RPMI-8226
KM12 = tested on: KM12
NCI-H460 = tested on: NCI-H460
DU-145 = tested on: DU-145
SR = tested on: SR
CAKI-1 = tested on: CAKI-1
786-0 = tested on: 786-0
MCF7 = tested on: MCF7
MDA-MB-435 = tested on: MDA-MB-435

Structure (SMILES)	GI50 (SF-295)	GI50 (TK-10)	GI50 (SW-620)	GI50 (NCI/ADR-RES)	GI50 (K562)	GI50 (RXF 393)	GI50 (A498)	GI50 (M14)	GI50 (EKVX)	GI50 (UO-31)	GI50 (SF-539)	GI50 (RPMI-8226)	GI50 (KM12)	GI50 (NCI-H460)	GI50 (DU-145)	GI50 (SR)	GI50 (CAKI-1)	GI50 (786-0)	GI50 (MCF7)	GI50 (MDA-MB-435)
O=C(OCC(OC(=O)c1ccccc1)C1CC(C2(O)CCCCC2)C(=O)O1)c1ccccc1 (stereo not given)	> 25 µM (inactive)	> 25 µM (inactive)	> 25 µM (inactive)	> 25 µM (inactive)	15.9 µM (inactive)	> 25 µM (inactive)	> 25 µM (inactive)	> 25 µM (inactive)	> 25 µM (inactive)	0.0181 µM (active)	> 25 µM (inactive)	> 25 µM (inactive)	11 µM (inactive)	9.18 µM (inactive)	> 25 µM (inactive)	7.59 µM (inactive)	> 25 µM (inactive)	> 25 µM (inactive)	21 µM (inactive)	> 25 µM (inactive)
Nc1ncnc2c1ncn2CCCCC(=O)O	> 100 µM (inactive)	> 100 µM (inactive)	> 100 µM (inactive)	> 100 µM (inactive)	> 100 µM (inactive)	> 100 µM (inactive)	> 100 µM (inactive)	> 100 µM (inactive)	> 100 µM (inactive)	> 100 µM (inactive)	> 100 µM (inactive)	> 100 µM (inactive)	> 100 µM (inactive)	> 100 µM (inactive)	> 100 µM (inactive)	> 100 µM (inactive)	> 100 µM (inactive)	> 100 µM (inactive)	> 100 µM (inactive)	> 100 µM (inactive)
COC1CCC(O)C(/C=C/[N+](=O)[O-])C1 (stereo not given)	10.6 µM (inactive)	4.72 µM (inactive)	3.33 µM (inactive)	15 µM (inactive)	3.03 µM (inactive)	1.42 µM (inactive)	3.99 µM (inactive)	2.68 µM (inactive)	4.56 µM (inactive)	1.81 µM (inactive)	4.4 µM (inactive)	1.55 µM (inactive)	4.14 µM (inactive)	2.62 µM (inactive)	3.64 µM (inactive)	1.59 µM (inactive)	16.2 µM (inactive)	1.7 µM (inactive)	2.88 µM (inactive)	1.65 µM (inactive)
CC(C)C1=C(Cc2ccccc2)C(=O)O/C1=C\c1cc(Cl)c(O)c(Cl)c1	16 µM (inactive)	26 µM (inactive)	23.1 µM (inactive)	23.3 µM (inactive)	17.4 µM (inactive)	16.4 µM (inactive)	23.7 µM (inactive)	19.1 µM (inactive)	26.1 µM (inactive)	14.1 µM (inactive)	21.5 µM (inactive)	17.3 µM (inactive)	16.7 µM (inactive)	18.2 µM (inactive)	16 µM (inactive)	21.8 µM (inactive)	15.8 µM (inactive)	17.1 µM (inactive)	27.9 µM (inactive)	17.3 µM (inactive)
C=C(CO[Si](C)(C)C(C)(C)C)C(C)=O	> 100 µM (inactive)	> 100 µM (inactive)	8.15 µM (inactive)	26.9 µM (inactive)	6.73 µM (inactive)	14.5 µM (inactive)	> 100 µM (inactive)	13.1 µM (inactive)	> 100 µM (inactive)	> 46.9 µM (inactive)	39.1 µM (inactive)	4.88 µM (inactive)	58.1 µM (inactive)	> 77.4 µM (inactive)	> 100 µM (inactive)	3.55 µM (inactive)	22.3 µM (inactive)	17.2 µM (inactive)	23.3 µM (inactive)	17.6 µM (inactive)
C=C(Cl)/C(=C/Cl)CCC(Br)C(C)(C)Cl.C=C(Cl)/C(=C\Cl)CCC(Br)C(C)(C)Cl (stereo not given)	> 10 µM (inactive)	> 10 µM (inactive)	> 10 µM (inactive)	> 10 µM (inactive)	5.43 µM (inactive)	> 10 µM (inactive)	> 10 µM (inactive)	> 10 µM (inactive)	> 10 µM (inactive)	> 10 µM (inactive)	> 10 µM (inactive)	> 10 µM (inactive)	> 10 µM (inactive)	> 10 µM (inactive)	> 10 µM (inactive)	5.45 µM (inactive)	> 10 µM (inactive)	> 10 µM (inactive)	> 10 µM (inactive)	> 10 µM (inactive)
Cc1cc(C)c2c(=N)c3ccccc3n(CCCCCCn3c4ccccc4c(=N)c4c(C)cc(C)nc43)c2n1	1.36 µM (inactive)	1.64 µM (inactive)	0.209 µM (active)	1.42 µM (inactive)	0.3 µM (active)	1.25 µM (inactive)	1.73 µM (inactive)	1.85 µM (inactive)	1.77 µM (inactive)	1.56 µM (inactive)	1.54 µM (inactive)	0.305 µM (active)	0.346 µM (active)	0.859 µM (active)	1.74 µM (inactive)	0.197 µM (active)	1.45 µM (inactive)	0.224 µM (active)	0.435 µM (active)	1.77 µM (inactive)
